# Test results taken from US5369111A, “Modulator agent and use thereof” (University of Vermont, priority 1992, dated 1994).
# What was measured:
# KB-3-1 cells = test: Modulation of drug sensitivity, KB-3-1; format: cell-based, human; details: ADM, VBL, VCR
# Procedure: (§1) Mid-exponential cultures were used for all assays. The RCC-2 and RCC-5 cell lines were seeded into 24-well plates at 2×10^4 cells/well and allowed to attach to the substratum for 16-18 h prior to treatment. The S180 cell lines were seeded into culture tubes at 1×10^5 cells/ml and treated immediately. Cytotoxicity was determined by quantitation of population growth after 72 h incubation by electronic particle counter (Coulter Electronics, Hialeah, Fla.). The human tumor cell lines were used in a clonogenic assay for cytotoxicity. Cells were seeded at 300 cells/dish, incubated overnight and then treated. Colonies were scored 7-11 days later. In all assays of analog modulation of drug sensitivity, the analog was added minutes prior to the addition of cytotoxic drug.
# (§2) FIG. 10 represents the potency of the analog C-20'-deoxy deethyl vincovaline as a modulator of the drug sensitivity of various cell lines: the parental S180 cell line: the two rat colon cancer cell lines, RCC-2 and RCC-5; and the human epidermoid carcinoma cell line KB-3-1 and its MDR cell strain KB-V1, which expresses very high levels of drug resistance (200-500 fold). The enhancement of sensitivity was calculated as the sensitivity index =IC50 of the drug alone divided by the IC50 of the drug+analog. […] The cytotoxicity of drug and analog treatments in the KB cell lines were measured by cloning efficiencies. […]
# RCC-2 and RCC-5 cells = test: Inhibition of population growth of rat colon cancer cell lines RCC-2 and RCC-5; format: cell-based; details: RCC-2 and RCC-5
# Source text: The analogs were examined in a panel of tumor cell lines of both intrinsic and acquired drug resistance, as described in Table 1. The rat colon adenocarcinoma cell lines RCC-2 and RCC-5 (ref. 13) were maintained in Ham's F12 medium supplemented with 5% heat-inactivated, fetal bovine serum (Sterile Systems. Hyclone, Logan, Utah). The two rat colon cancer cell lines differ in their degree of cellular differentiation; whereas the RCC-2 cell line is undifferentiated, the RCC-5 cell line is highly mucinous. The human epidermoid carcinoma cell line KB-3-1 and its MDR variant KB-Vl, selected by VBL treatment (ref. 14; courtesy of M. Gottesman. National Cancer Institute), was maintained in DMEM medium supplemented with 10%, heat-inactivated, fetal bovine serum. […]
# Mid-exponential cultures were used for all assays. […] Cytotoxicity was determined by quantitation of population growth after 72 h incubation by electronic particle counter (Coulter Electronics, Hialeah, Fla.). […] Colonies were scored 7-11 days later. […]
# FIG. 7 represents the toxicity of analog C-20'-deoxy vincovaline (A) and C-20'-deoxy deethyl vincovaline (B) to population growth of the rat colon adenocarcinoma cell lines. The congener was added at various concentrations to RCC-2 (.cndot.) and RCC-5 (Δ) cell cultures and the population cell number was determined 72 hours later. […]
# [1] = Viability (MTT test) of P388 S cells; format: cell-based; details: mouse; sensitive cells P388 S, 24 h and 48 h; read-out: concentrations up to which no cytotoxicity is seen
# Source text: The sensitization of C-20'-deoxy C-20'-deethyl vincovaline (D-DEV) has been tested on sensitive and resistants P388 cell lines originating from mouse lympnoma.
# The resistance to anticancerous drug has been induced on DBA2 mouses bearing P388 cells ascites and maintained by treatment with adryamycin.
# This study has been carried out at least in triplicate.
# [2] = Clonogenic assay for cytotoxicity, MDR variant KB-V1; format: cell-based, human; details: human, kb-v1 cells; read-out: non-toxic concentration limit
# Source text: The analogs were examined in a panel of tumor cell lines of both intrinsic and acquired drug resistance, as described in Table 1. The rat colon adenocarcinoma cell lines RCC-2 and RCC-5 (ref. 13) were maintained in Ham's F12 medium supplemented with 5% heat-inactivated, fetal bovine serum (Sterile Systems. Hyclone, Logan, Utah). The two rat colon cancer cell lines differ in their degree of cellular differentiation; whereas the RCC-2 cell line is undifferentiated, the RCC-5 cell line is highly mucinous. The human epidermoid carcinoma cell line KB-3-1 and its MDR variant KB-Vl, selected by VBL treatment (ref. 14; courtesy of M. Gottesman. National Cancer Institute), was maintained in DMEM medium supplemented with 10%, heat-inactivated, fetal bovine serum. The murine sarcoma cell line […] and its MDR strains A3 and A10 selected by ADM treatment (ref. 15; courtesy of T. Tritton, Dept. Pharmacology, Univ. Vermont). were maintained in DMEM medium supplemented with 10% heat-inactivated, horse serum (Hazelton Biolog. Lenexa, Kans.). Stock cultures were subcultured twice weekly upon reaching the late exponential phase of population growth: population doubling times were 18-24 h. Antibiotics were not used in stock or experimental cultures. The MDR cell strains were grown in drug-free media for 48 h prior to experimental use.
# as §1
# FIG. 10 represents the potency of the analog C-20'-deoxy deethyl vincovaline as a modulator of the drug sensitivity of various cell lines: the parental S180 cell line: the two rat colon cancer cell lines, RCC-2 and RCC-5; and the human epidermoid carcinoma cell line KB-3-1 and its MDR cell strain KB-V1, which expresses very high levels of drug resistance (200-500 fold). The enhancement of sensitivity was calculated as the sensitivity index =IC50 of the drug alone divided by the IC50 of the drug+analog. The drugs examined were ADM (o), VBL (Δ), and VCR (.quadrature.). The cytotoxicity of drug and analog treatments in the KB cell lines were measured by cloning efficiencies. The arrows denote the non-toxic concentration limit of the analog in each cell line.
# KB-V1 cells = test: Modulation of acquired resistance, KB-V1; format: cell-based, human; details: at the non-toxic concentration limit of 20 μM
# Procedure: as §1, §2
structure (smiles),measurement,setting,value
"CC[C@]12C=CCN3CC[C@@]4(c5cc([C@]6(C(=O)OC)C[C@H]7CCCN(CCc8c6[nH]c6ccccc86)C7)c(OC)cc5N(C)[C@H]4[C@@](O)(C(=O)OC)[C@@H]1OC(C)=O)[C@@H]32 [analog n° 352, C-20'-deoxy-20'-deethyl-C-14', 16'-epi-VBL]",sensitization to all three drugs,KB-3-1 cells,3-5 fold
same,reduction in cytotoxicity to the colon cancer cell lines compared to C-20'-deoxy vincovaline,RCC-2 and RCC-5 cells,10 fold
same,MNTC,[1],≥ 25 µM
same,MNTC,[2],20 µM
same,sensitization to VCR only,KB-V1 cells,6 fold
